Earlier results as cited in patent US4835149A, “Solubilization of salts of pyridine-2-thiol-1-oxide” (BASF Corporation, priority 1986, dated 1989).

Assays:
[1] = not given; remark: listed apart in the source

[O-][n+]1ccccc1[S-].[O-][n+]1ccccc1[S-].[Zn+2] [zinc salt]
solubility in benzene (benzene): 3-5 p.p.m. | solubility in chloroform (chloroform): 3400 p.p.m. | solubility in dimethyl formamide (dimethyl formamide): 8100 p.p.m. | solubility in dimethyl sulfoxide (dimethyl sulfoxide): 5.13% | solubility in ethanol (ethanol): 310 p.p.m. | solubility in petroleum oils, and most common organic solvents (petroleum oils, and most common organic solvents, in words): substantially insoluble | solubility in water (water): 10-20 p.p.m. | solubility of the zinc salt in a composition according to U.S. Pat. No. 3,636,213 ([1]; composition having a pH of about 8): at least 200 parts per million | solubility in water at pH 8 ([1]; pH of 8): 35 to 50 parts per million | solubility in water at pH 7 ([1]; water, pH 7): 10 to 20 parts per million
